From patent publication US20250332158A1, “COMPOSITION FOR PROMOTING MITOPHAGY ACTIVITY COMPRISING ISOQUINOLINE DERIVATIVE COMPOUND AS ACTIVE INGREDIENT AND USE THEREOF” (ALTMEDICAL CO., LTD., priority 2022, published 2025)
Entries after “also recorded” stand apart in the source; their conditions may differ. Like-named read-outs stand apart in the source and are kept apart here.

What was measured:
[1] = tested on: human normal lung cell line BEAS-2B; assay: colony forming assay (cytotoxicity); assay type: cell-based
Experimental: A colony forming assay was performed to confirm the cytotoxicity of the novel isoquinoline derivatives of the present disclosure. Specifically, the isoquinoline derivatives were treated to the human normal lung cell line BEAS-2B for 24 hours, followed by culturing for 2 weeks to analyze the colony formed. As controls, a control group (con) that was not treated with anything and a positive control treated with CCCP, which induces mitophagy activity but also causes mitochondrial dysfunction and toxicity, were used.

[2] = tested on: human normal lung cell line BEAS-2B; assay: mitophagy activity by mt-Keima (mitokeyma) fluorescent protein quantification, flow cytometry; assay type: cell-based; conditions: for mitophagy activity compared to the con group / concentration showing maximum mitophagy activity: BEAS-2B; for mitophagy activity compared to the con group: 20 µM, 24 hours, flow cytometer (FIG. 2A); for concentration showing maximum mitophagy activity: concentration series (FIG. 2B); for times higher mitophagy activity than CD1-012: from concentrations of maximum mitophagy activity
Text: By utilizing these characteristics, mt-Keima can be expressed specifically in mitochondria, and by performing integrated analysis of the fluorescence signals at 458 nm and 561 nm, the fluorescence signal can be analyzed when mitochondria in a neutral environment (pH=7.4-7.8) are converted to an acidic environment (pH=4.5) by lysosomes delivered from mitophagy, allowing for quantitative measurement of mitophagy activity.
Specifically, a mitokeyma fluorescent protein quantification method, which allows for the quantitative measurement of mitophagy activity in living cells, was used. […] After treatment, the activity of mitophagy was measured using a flow cytometer. As a negative control, a control group (Control, con) without compound treatment was used, and as a positive control, CCCP (10 μM), which experimentally induces mitophagy activity, and CD1-012, a precursor of the compound of the present disclosure known to induce mitophagy activity, were used.

| Structure (SMILES) | mitophagy activity compared to the con group [2] | also measured |
| --- | --- | --- |
| N#CC(C#N)=NNc1cccc(Cl)c1 [CCCP, reference compound] | – | size and number of colonies (cytotoxicity) [1]: decrease in both the size and number of colonies |
| Oc1cc2c(cc1O)-c1cc3ccc(O)c(O)c3c[n+]1CC2 [CD1-271] | promote the activity of mitophagy | – |
| COc1ccc2c(Cc3ccccc3)c3[n+](cc2c1OC)CCc1cc2c(cc1-3)OCO2 [CD1-404] | promote the activity of mitophagy | – |
| Oc1cc2c(cc1O)C1=Cc3ccc(O)c(O)c3CN1CC2 [CD1-367] | promote the activity of mitophagy | size and number of colonies (cytotoxicity) ([1]; BEAS-2B, treated 24 hours, cultured 2 weeks (FIG. 4)): except for CD1-367, did not exhibit cytotoxicity |
| CCc1c2[n+](cc3c(OC)c(OC)ccc13)CCc1cc3c(cc1-2)OCO3 [CD1-409] | best mitophagy activity promotion; also recorded: promote the activity of mitophagy | concentration showing maximum mitophagy activity [2]: 10 µM; times higher mitophagy activity than CD1-012 [2]: 2 times |
| COc1ccc2c(c1OC)CN1CCc3cc4c(cc3C1=C2)OCO4 [CD1-363] | promote the activity of mitophagy | – |
| C=CCc1c2[n+](cc3c(OC)c(OC)ccc13)CCc1cc3c(cc1-2)OCO3 [CD1-386] | best mitophagy activity promotion; also recorded: promote the activity of mitophagy | concentration showing maximum mitophagy activity [2]: 5 µM; times higher mitophagy activity than CD1-012 [2]: 4 times |
